Measurements published in patent US20220411362A1, “DITERPENOID COMPOUNDS THAT ACT ON PROTEIN KINASE C (PKC)” (K-Gen, Inc., priority 2019, published 2022).
Where two headings read alike, the source gives them in different places.

Experiments:
C1b domain of human PKCθ = molecular target: T1, C1b domain of human PKCθ (Homo sapiens, UniProt Q04759); experiment: Competitive 3H-PDBu binding to C1b domain of PKCθ
T1 construct: Genes encoding C1b domains of human PKCα, δ, ε, θ, and PKD1 (PKCμ) were synthesized; made in house; host or cells: E. coli BL21(DE3)
T1 sequence (Q04759 231-281 limits assumed): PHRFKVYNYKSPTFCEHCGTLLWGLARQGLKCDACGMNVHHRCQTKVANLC
Protocol: (§1) Compounds described in this disclosure were tested for binding affinity to C1b domain of PKC isoforms. Compound binding affinity to C1b domain of PKC isoforms was derived from competitive binding assay using radioactive tracer ^3H-PDBu and recombinant GST-C1b or full-length of human PKC proteins based on modified procedures from Methods in Molecular Biology, vol.
(§2) Genes encoding C1b domains of human PKCα, δ, ε, θ, and PKD1 (PKCμ) were synthesized and inserted into pGEX-2TK or pGEX-4T1 vectors for expression and production of GST-C1b proteins in E. coli BL21(DE3) via IPTG induction. The target proteins were purified by glutathione sepharose 4B and followed by ion exchange chromatography if needed to achieve purity >70%. Aliquots of the purified proteins were stored at −80 degree for binding assay (storage buffer: 20 mM Tris pH 8.0, 200 mM NaCl, 10% glycerol, 1 mM DTT).
(§3) The plate was incubated at 37° C. on a shaker at 300 rpm for 10 minutes and then put on ice for 20 minutes. […] The bottom of the filter plate was sealed and 50 μL of MicroScint-20 (PerkinElmer) cocktail was added to each well. ^3H-PDBu trapped in each well was counted using PerkinElmer MicroBeta2 Reader. Data were analyzed using GraphPad Prism5 with the model “log(inhibitor) vs. response-variable slope” to fit the IC50, and then IC50 was transformed to Ki using Cheng-Prusoff equation: Ki=IC50/(1+added radio ligand/Kd). Kd is the binding affinity of each protein preparation to ^3H-PDBu, determined experimentally.

C1b domain of human PKCδ = molecular target: T2, C1b domain of human PKCδ (Homo sapiens, UniProt Q05655); experiment: Competitive 3H-PDBu binding to C1b domain of PKCδ; conditions: 3H-PDBu competition
T2 construct: Genes encoding C1b domains of human PKCα, δ, ε, θ, and PKD1 (PKCμ) were synthesized; made in house; host or cells: E. coli BL21(DE3)
Protocol: as §1, §2, §3

[1] = system: A549 non-small cell lung cancer cell line; experiment: Proliferation of A549 (CellTiter Glo); format: cell-based; conditions: read-out: IC50 μM (A549 Cell Line)
Protocol: The diterpenoid compounds were tested in A549, a non-small cell lung cancer cell line harboring a K-Ras activating mutation. Briefly, A549 cells at a density of 1,000 cells/well were seeded in 96-well plates and incubated at 37° C. for 24 hours. A series of different concentrations of compound stocks (500×) were prepared by 3-fold serial dilution in DMSO. These compounds were further diluted in culture media and then added to cells so that the final DMSO concentration was not exceeding 0.25%. After 96 hours of incubation, 50 μL of CellTiter Glo reagent (Promega) was added to each well and luminescence was measured after 10 minutes using EnVision (PerkinElmer). Luminescence from cells treated with DMSO alone was set as Max and % of inhibition was calculated as follows: Inhibition %=(Max−Sample value)/Max×100. Data was analyzed using XL-fit software (ID Business Solutions Ltd.) and IC50, relative IC50, and % of top inhibition was calculated. Some of the compounds in this disclosure were very potent in blocking proliferation of A549 lung cancer cells at low nM range. In addition, potency of inhibiting A549 proliferation correlated well with its binding affinity to PKCs for this series of compounds. In other words, higher affinity binders had stronger inhibitory effects on A549 proliferation. This further support the notion that activation, rather than inhibition, of certain PKC isoforms is required to block proliferation of cancer cells, some of which may harbor K-Ras mutations. This is in sharp contrast to previous literature and common belief that inhibition of PKC is necessary to block cancer cell growth (Kang, 2014, New Journal of Science, 2014:1-36). Data presented here is in agreement with recent findings that many loss-of-function but not gain-of-function mutations of PKC isoforms have been identified in many human cancers (Antal et al., 2015, Cell, 160:489-502).

[2] = molecular target: T3, C1b domain of human PKD1 (PKCμ) (Homo sapiens, UniProt Q15139); experiment: biochemical; format: binding
T3 construct: Genes encoding C1b domains of human PKCα, δ, ε, θ, and PKD1 (PKCμ) were synthesized; made in house; host or cells: E. coli BL21(DE3)
T3 sequence (Q15139 270-320 limits assumed): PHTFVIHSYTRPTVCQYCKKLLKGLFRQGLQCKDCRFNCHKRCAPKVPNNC
Protocol: as §1, §2, §3

C1b domain of human PKCε = molecular target: T4, C1b domain of human PKCε (Homo sapiens, UniProt Q02156); experiment: Competitive 3H-PDBu binding to C1b domain of PKCε
T4 construct: Genes encoding C1b domains of human PKCα, δ, ε, θ, and PKD1 (PKCμ) were synthesized; made in house; host or cells: E. coli BL21(DE3)
Protocol: as §1, §2, §3

C1b domain of human PKCα = molecular target: T5, C1b domain of human PKCα (Homo sapiens, UniProt P17252); experiment: biochemical; format: binding; conditions: 3H-PDBu competition; for Ki: Ki PKCα
T5 construct: Genes encoding C1b domains of human PKCα, δ, ε, θ, and PKD1 (PKCμ) were synthesized; made in house; host or cells: E. coli BL21(DE3)
Protocol: as §1, §2
The plate was incubated at 37° C. on a shaker at 300 rpm for 10 minutes and then put on ice for 20 minutes. […] The bottom of the filter plate was sealed and 50 μL of MicroScint-20 (PerkinElmer) cocktail was added to each well. ^3H-PDBu trapped in each well was counted using PerkinElmer MicroBeta2 Reader. […] Kd is the binding affinity of each protein preparation to ^3H-PDBu, determined experimentally.

T2 sequence (Q05655 230-280 limits assumed): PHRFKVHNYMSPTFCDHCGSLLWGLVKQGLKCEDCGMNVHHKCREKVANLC
T4 sequence (Q02156 242-292 limits assumed): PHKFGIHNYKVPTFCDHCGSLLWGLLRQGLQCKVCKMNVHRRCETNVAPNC

Structure (SMILES)	Ki (C1b domain of human PKCθ)	Ki (C1b domain of human PKCδ; Ki PKCδ)	IC50 ([1]; Homo sapiens, A549, 96 h)	Ki [2]	Ki (C1b domain of human PKCε)	Ki (C1b domain of human PKCα)	Ki PKCα (C1b domain of human PKCα)	Ki (C1b domain of human PKCθ; C1b domain of human PKCθ, 3H-PDBu competition, read-out: Ki PKCθ)	Ki (C1b domain of human PKCδ; read-out: Ki PKCδ)	IC50 ([1]; A549, 96 hours incubation, CellTiter Glo)	Ki ([2]; C1b domain of human PKD1 (PKCμ), 3H-PDBu competition, read-out: Ki PKD1/PKCμ)	Ki (C1b domain of human PKCε; C1b domain of human PKCε, 3H-PDBu competition, read-out: Ki PKCε)
CC1=C[C@H]2[C@@]3(O)[C@H](C)C[C@]4(O)[C@H]([C@@H]3C=C(CO)C[C@]2(O)C1=O)C4(C)C [Compound K101-C13OH]	2 to 4 µM	6 to 8 µM	> 30 µM	4 to 6 µM	2 to 4 µM	> 8 µM						
CC1=C[C@H]2[C@@]3(O)[C@H](C)C[C@]4(OC(=O)C5CC6(CNC6)C5)[C@H]([C@@H]3C=C(CO)C[C@]2(O)C1=O)C4(C)C [Compound K101-C1305]	0.2 to 0.4 µM	0.4 to 0.8 µM	> 30 µM	0.1 to 0.2 µM	1 to 2 µM	> 8 µM						
CC1=C[C@H]2[C@@]3(O)[C@H](C)C[C@]4(OC(=O)CC5CC6(CNC6)C5)[C@H]([C@@H]3C=C(CO)C[C@]2(O)C1=O)C4(C)C [Compound K101-C1306]	0.1 to 0.2 µM	0.1 to 0.2 µM	> 30 µM	0.001 to 0.03 µM	0.2 to 0.4 µM	1 to 2 µM						
CC1=C[C@H]2[C@@]3(O)[C@H](C)C[C@]4(OC(=O)C5CC6(C5)CN(C(=O)OC(C)(C)C)C6)[C@H]([C@@H]3C=C(CO)C[C@]2(O)C1=O)C4(C)C [Compound K101-C1311]	0.001 to 0.03 µM	0.001 to 0.03 µM	0.1 to 0.2 µM	< 0.005 µM	0.03 to 0.06 µM	0.4 to 0.8 µM						
CC1=C[C@H]2[C@@]3(O)[C@H](C)C[C@]4(OC(=O)CC5CC6(C5)CN(C(=O)OC(C)(C)C)C6)[C@H]([C@@H]3C=C(CO)C[C@]2(O)C1=O)C4(C)C [Compound K101-C1312]	0.001 to 0.03 µM	0.005 to 0.01 µM	0.03 to 0.06 µM	< 0.005 µM	0.001 to 0.03 µM	0.1 to 0.2 µM						
CC1=C[C@H]2[C@@]3(O)[C@H](C)C[C@]4(OC(=O)/C=C/c5ccc(C(F)(F)F)cc5)[C@H]([C@@H]3C=C(CO)C[C@]2(O)C1=O)C4(C)C [Compound K101-C1313]	0.001 to 0.03 µM	0.001 to 0.03 µM	0.06 to 0.1 µM	< 0.005 µM	0.001 to 0.03 µM	0.2 to 0.4 µM						
CC1=C[C@H]2[C@@]3(O)[C@H](C)C[C@]4(OC(=O)C[C@@H](N)CCc5ccccc5)[C@H]([C@@H]3C=C(CO)C[C@]2(O)C1=O)C4(C)C [Compound K101-C1350]		0.001 to 0.03 µM	0.6 to 1 µM	< 0.005 µM		0.4 to 0.8 µM						
CC1=C[C@H]2[C@@]3(O)[C@H](C)C[C@]4(OC(=O)[C@H](N)CCCc5ccccc5)[C@H]([C@@H]3C=C(CO)C[C@]2(O)C1=O)C4(C)C [Compound K101-C1351]		0.03 to 0.06 µM	0.2 to 0.6 µM	0.001 to 0.03 µM		1 to 2 µM						
CCCCCCCCCCCCCCCCCCC(CC(=O)O[C@@]12C[C@@H](C)[C@@]3(O)[C@@H](C=C(CO)C[C@]4(O)C(=O)C(C)=C[C@@H]34)[C@@H]1C2(C)C)C(=O)O (stereo partly shown) [Compound K101-C1352]		0.2 to 0.4 µM	5 to 10 µM	0.2 to 0.4 µM		4 to 6 µM						
CC1=C[C@H]2[C@@]3(O)[C@H](C)C[C@]4(OC(=O)C(Cc5ccccc5)C(=O)O)[C@H]([C@@H]3C=C(CO)C[C@]2(O)C1=O)C4(C)C (stereo partly shown) [Compound K101-C1353]		0.4 to 0.8 µM	1 to 2 µM	4 to 6 µM		> 8 µM						
CC1=C[C@H]2[C@@]3(O)[C@H](C)C[C@]4(OC(=O)[C@@H](O)Cc5ccccc5)[C@H]([C@@H]3C=C(CO)C[C@]2(O)C1=O)C4(C)C [Compound K101-C1354]		0.03 to 0.06 µM	0.2 to 0.6 µM	0.001 to 0.03 µM		1 to 2 µM						
CC1=C[C@H]2[C@@]3(O)[C@H](C)C[C@]4(OC(=O)C[C@@H](N)c5ccccc5)[C@H]([C@@H]3C=C(CO)C[C@]2(O)C1=O)C4(C)C [Compound K101-C1357]		0.2 to 0.4 µM	2 to 5 µM	0.03 to 0.06 µM		> 8 µM						
CC1=C[C@H]2[C@@]3(O)[C@H](C)C[C@]4(OC(=O)C[C@H](N)Cc5ccccc5)[C@H]([C@@H]3C=C(CO)C[C@]2(O)C1=O)C4(C)C [Compound K101-C1358]		0.001 to 0.03 µM	1 to 2 µM	0.005 to 0.01 µM		0.2 to 0.4 µM						
CC1=C[C@H]2[C@@]3(O)[C@H](C)C[C@]4(OC(=O)[C@H](CC5CCCCC5)N(C)C)[C@H]([C@@H]3C=C(CO)C[C@]2(O)C1=O)C4(C)C [Compound K101-C1365]		0.1 to 0.2 µM	0.6 to 1 µM	0.03 to 0.06 µM		4 to 6 µM						
CC1=C[C@H]2[C@@]3(O)[C@H](C)C[C@]4(OC(=O)[C@H](N)CCc5ccc(C(F)(F)F)cc5)[C@H]([C@@H]3C=C(CO)C[C@]2(O)C1=O)C4(C)C [Compound K101-C135601]		0.03 to 0.06 µM	0.2 to 0.6 µM	0.001 to 0.03 µM		1 to 2 µM						
CC1=C[C@H]2[C@@]3(O)[C@H](C)C[C@]4(OC(=O)[C@H](N)CCCCCCc5ccc(C(F)(F)F)cc5)[C@H]([C@@H]3C=C(CO)C[C@]2(O)C1=O)C4(C)C [Compound K101-C135901]	0.03 to 0.06 µM	0.03 to 0.06 µM	0.06 to 0.1 µM	0.001 to 0.03 µM		1 to 2 µM						
CC1=C[C@H]2[C@@]3(O)[C@H](C)C[C@]4(OC(=O)[C@@H](N)CCCCCCc5ccc(C(F)(F)F)cc5)[C@H]([C@@H]3C=C(CO)C[C@]2(O)C1=O)C4(C)C [Compound K101-C135902]	0.001 to 0.03 µM	0.005 to 0.01 µM	0.01 to 0.03 µM	0.005 to 0.01 µM	0.001 to 0.03 µM		E (E=>60 nM and ≤10 nM)					
CC1=C[C@H]2[C@@]3(O)[C@H](C)C[C@]4(OC(=O)[C@H](N)CCCCCCCCc5ccccc5)[C@H]([C@@H]3C=C(CO)C[C@]2(O)C1=O)C4(C)C [Compound K101-C136101]	0.001 to 0.03 µM	0.001 to 0.03 µM	0.01 to 0.03 µM	0.005 to 0.01 µM	0.001 to 0.03 µM	0.4 to 0.8 µM						
CC1=C[C@H]2[C@@]3(O)[C@H](C)C[C@]4(OC(=O)[C@@H](N)CCCCCCCCc5ccccc5)[C@H]([C@@H]3C=C(CO)C[C@]2(O)C1=O)C4(C)C [Compound K101-C136102]	< 0.005 µM	0.001 to 0.03 µM	0.001 to 0.01 µM	< 0.005 µM	0.005 to 0.01 µM	0.03 to 0.06 µM						
CCCCCCCCCCCCCC(=O)O[C@@H]1[C@@H](C)[C@@]2(O)[C@@H](C=C(CO)C[C@]3(O)C(=O)C(C)=C[C@@H]23)[C@@H]2C(C)(C)[C@]12OC(C)=O [Compound K103, 12-O-Tetradecanoylphorbol-13-acetate, reference compound]								< 0.005 µM	< 0.005 µM	< 0.001 µM	< 0.005 µM	< 0.005 µM
